# Test results taken from patent US12616672B2, “Methods for assessing risk of cardiovascular disease and methods and compounds for use in treating or preventing cardiovascular disease” (Queen Mary University of London, priority 2017, dated 2026).
# “And” between values parts separate entries of the source, which are not always exact repeats. Equal values may be shown once.
# How the values were obtained:
# [1] = tested on: peripheral blood from healthy volunteers; assay: Human whole blood incubations (ACh, norepinephrine, cortisol), then lipid mediator profiling of plasma; format: cell-based; settings: for production of n-3 DPA derived mediators in peripheral blood: norepinephrine 0.1-10 μM, cortisol 1-10 μM, healthy volunteers
# Protocol: Plasma was obtained from peripheral blood of healthy volunteers and patients following centrifugation at 1500×g for 10 min at room temperature. Descending aortas were weighed, placed in ice-cold methanol and homogenized using a glass dounce.
# All samples for LC-MS-MS-based profiling were extracted using solid-phase extraction columns as described in Dalli et al. 2013 and Rathod et al. 2017, the contents of which are incorporated herein by reference.
# Prior to sample extraction, deuterated internal standards, representing each region in the chromatographic analysis (500 pg each) were added to facilitate quantification in 4V of cold methanol.
# Samples were kept at −20° C. for a minimum of 45 min to allow protein precipitation.
# Supernatants were subjected to solid phase extraction, methyl formate fraction collected, brought to dryness and suspended in phase (methanol/water, 1:1, vol/vol) for injection on a Shimadzu LC-20AD HPLC and a Shimadzu SIL-20AC autoinjector, paired with a triple quadrupole mass spectrometer with or without a linear ion trap.
# An Agilent Poroshell 120 EC-C18 column (100 mm×4.6 mm×2.7 μm) was kept at 50° C. and mediators eluted using a mobile phase consisting of methanol-water-acetic acid of 20:80:0.01 (vol/vol/vol) that was ramped to 50:50:0.01 (vol/vol/vol) over 0.5 min and then to 80:20:0.01 (vol/vol/vol) from 2 min to 11 min, maintained till 14.5 min and then rapidly ramped to 98:2:0.01 (vol/vol/vol) for the next 0.1 min. This was subsequently maintained at 98:2:0.01 (vol/vol/vol) for 5.4 min, and the flow rate was maintained at 0.5 ml/min. Mass spectrometer was operated using a multiple reaction monitoring method as in Walker M E et al. 13-Series resolvins mediate the leukocyte-platelet actions of atorvastatin and pravastatin in inflammatory arthritis. FASEB J. 2017 August; 31(8):3636-3648, the contents of which are incorporated herein by reference.
# Each LM was identified using established criteria including matching retention time to synthetic and authentic materials and at least six diagnostic ions (Walker M E et al. 2017. ibid.)
# Calibration curves were obtained for each using synthetic compound mixtures at 0.78, 1.56, 3.12, 6.25, 12.5, 25, 50, 100, and 200 pg that gave linear calibration curves with an r^2 values of 0.98-0.99. […]
# [2] = tested on: peripheral blood leukocytes and platelets from CVD patients; assay: CVD patient whole blood incubated with RvD2n-3 DPA or RvD5n-3 DPA then PAF, flow cytometry; format: cell-based, human; settings: 15 min then PAF 30 min
# Protocol: (§1) Whole blood was incubated with RvD2n-3 DPA or RvD5n-3 DPA (0.1 nM, 1 nM or 10 nM) or vehicle (PBS containing 0.01% EtOH) for 15 min then with PAF (100 ng/ml) for 30 min (37° C.). Expression of CD62P on (A) neutrophils (B) monocytes and CD11b on (C) neutrophils and (D) monocytes was investigated using flow cytometry and fluorescently labelled antibodies. Results are mean±s.em. and expressed as percentage of PAF incubated cells. n=9 patients per interval. * p<0.05 vs Veh group using one-sample t test, followed by Sidak correction of p values.
# as §1, with “labeled” for “labelled”, “group.” for “interval.”, “PAF” for “Veh”, “Wilcoxon Signed Rank Test.” for “one-sample t test, followed by Sidak correction of p values.”
# (§2) After stimulation, samples were washed twice with PBS for 12 min at 800×g. Samples were stained for flow cytometry as described below.
# (§3) Whole blood was incubated with lineage-specific markers for 45 min (4° C., in DPBS containing 0.02% BSA). The following anti-human antibodies were used: VioBlue-anti-CD41, PE-Cy5-anti-CD62P, Brilliant Violet 711-anti-CD11b, APC-Cy7-anti-CD16, Alexa Fluor 647-anti-CD14. After staining, red blood cells were lysed using Whole Blood Lysing Reagent Kit, according to the manufacturer's instructions. Data was collected using a flow cytometer and analysis was conducted using appropriate software.
# [3] = tested on: peripheral blood leukocytes and platelets from CVD patients; assay: as above; format: cell-based, human
# [4] = tested on: healthy volunteer peripheral blood neutrophils, monocytes and platelets; assay: Healthy volunteer whole blood incubated with RvDn-3 DPA then PAF, flow cytometry of activation markers; format: cell-based, human; settings: vs PAF alone
# Protocol: Blood was collected from healthy volunteers and incubated with RvD2n-3 DPA, RvD5n-3 DPA (0.1 nM, 1 nM or 10 nM) or vehicle (PBS) for 15 min (37° C.) then with PAF (100 ng/ml; 30 min; 37° C.). Cell activation and leukocyte-platelet aggregates were assessed using flow cytometry. (A,B) Representative histograms depicting neutrophil (A) CD11b and (B) CD62P expression. (C,D) Cumulative neutrophil ([…]) CD11b and (D) CD62P expression. (E,F) Monocyte (E) CD11b and (F) CD62P expression. Results are mean of n=5 per time point and expressed as percentage change from PAF incubated cells. *p<0.05 compared to PAF using one-sample t test, followed by Sidak correction of p values.
# Blood was collected from healthy volunteers and incubated with RvD2n-3 DPA, RvD5n-3 DPA (0.1 nM, 1 nM or 10 nM) or vehicle (PBS) for 15 min (37° C.) then with PAF (100 ng/ml; 30 min; 37° C.). Cell activation and leukocyte-platelet aggregates were assessed using flow cytometry. (A,B) Images depicting platelet monocyte (A) and (B) platelet-neutrophil aggregates. Results are representative of n=3 distinct experiments. (C,D) Cumulative neutrophil (C) CD11b and (D) CD62P expression. (E,F) Monocyte (E) CD11b and (F) CD62P expression. Results are mean of n=5 per condition and expressed as percentage change from PAF incubated cells. *p<0.05 compared to PAF using Wilcoxon Signed Rank Test. (G) Platelet rich plasma was incubated with vehicle (PBS) or RvD5n-3 DPA 0.1-10 nM (15 min; 37° C.) and PAF (100 nM; 30 min; 37° C.). Adhesion molecule expression evaluated using flow cytometry. Results are mean±s.e.m. n=5 healthy volunteers. * p, 0.05 compared to Vehicle group using Friedman's test followed by Dunn's multiple comparisons test.
# as §2, §3
# [5] = tested on: peripheral blood leukocytes and platelets from CVD patients; assay: CVD patient whole blood incubated with RvD2n-3 DPA or RvD5n-3 DPA for 45 min, flow cytometry; format: cell-based, human; settings: 45 min, no PAF
# Protocol: FIG. 8: RvD2n-3 DPA and RvD5n-3 DPA reduce leukocyte activation in peripheral blood from CVD patients. Peripheral blood from patients diagnosed with cardiovascular disease (CVD) was collected at 9:00 h. […] Expression of CD62P on (A) neutrophils (B) monocytes and CD11b on (C) neutrophils and (D) monocytes was investigated using flow cytometry and fluorescently labelled antibodies.
# as §3
# In select experiments platelet adhesion molecule expression was assessed. Here platelets were incubated with fluorescently labelled mouse anti-human VioBlue-anti-CD41, PE-Cy5-anti-CD62P, PerCP/Cy5.5-anti-CD63 and FITC-ant-CD42b for 30 min at 4° C. Cells were then washed and fluorescence, staining evaluated using LSRFortessa cell analyser (BD Biosciences) and analysed using FlowJo software (Tree Star Inc., V10).
# [6] = tested on: peripheral blood from CVD patients; settings: ADA 1U, 37° C., 20 min, then perfused 0.3 Pa
# Protocol: (B) Peripheral blood from CVD patients was incubated with ADA (1U; 37° C.; 20 min) then perfused (0.3 Pa, 20 min, 37° C.). Plasma was collected and RvDn-3 DPA concentrations determined using LC/MS-MS based lipid mediator profiling. Results are mean±s.e.m. n=6 donors. *p<0.05, using paired Mann-Whitney test.
# Using an automated syringe pump (Harvard Apparatus) connected to small-diameter tubing (1.6 mm inner diameter) and chamber slides (15μ-Slide VI^0.4, Ibidi), whole blood was perfused at a sheer rate of 0.1 dyne/cm^2 (low sheer rate) and at 0.3 dyne/cm^2 (high sheer rate) for 15 min. In selected experiment, blood was incubated with 10 nM Ach or 1 u of ADA for 20 min prior perfusing.
# [7] = whole blood with ACh 0.1 μM, 45 min, 37° C., n = 9
# [8] = whole blood with ACh 0.1 μM, 45 min, n = 9
# [9] = whole blood with Cortisol 1 μM, 45 min, n = 5
# [10] = whole blood with Cortisol 10 μM, 45 min, n = 5
# [11] = 0.1, 1, 10 nM, 15 min then PAF 30 min
# [12] = CVD patient whole blood, 0.1, 1, 10 nM
compound,measurement,setting,value
"CC(=O)OCC[N+](C)(C)C [ACh, acetylcholine]",increase in RvD2n-3 DPA compared with blood incubated with vehicle alone,[1]; whole blood incubated with ACh,~160%
same,7-HDPA concentration,[1]; [7],44.9 pg/mL and 44.9 ± 10.7 pg/mL
same,13-HDPA concentration,[1]; [7],1.9 pg/mL and 1.9 ± 0.6 pg/mL
same,14-HDPA concentration,[1]; [7],137.2 pg/mL and 137.2 ± 25.8 pg/mL
same,17-HDPA concentration,[1]; [7],58.9 pg/mL and 58.9 ± 13.2 pg/mL
same,DPA concentration,[1]; [7],3873.1 pg/mL and 3873.1 ± 706.3 pg/mL
same,MaR1n-3 DPA concentration,[1]; [7],0.9 pg/mL
same,PD1n-3 DPA concentration,[1]; [7],0.5 pg/mL
same,RvD1n-3 DPA concentration,[1]; [7],4.9 pg/mL
same,RvD2n-3 DPA concentration,[1]; [7],7.4 pg/mL
same,RvD5n-3 DPA concentration,[1]; [7],1.5 pg/mL
same,RvT1 concentration,[1]; [7],2.0 pg/mL
same,RvT2 concentration,[1]; [7],1.6 pg/mL
same,RvT3 concentration,[1]; [7],1.4 pg/mL
same,RvT4 concentration,[1]; [7],1.0 pg/mL
same,4HDHA concentration,[1]; [8],19.9 ± 5.1 pg/mL
same,5HEPE concentration,[1]; [8],42.7 ± 11.3 pg/mL
same,5HETE concentration,[1]; [8],69.9 ± 13.5 pg/mL
same,7HDHA concentration,[1]; [8],8.6 ± 3.7 pg/mL
same,12HEPE concentration,[1]; [8],402.4 ± 106.0 pg/mL
same,12HETE concentration,[1]; [8],5148.0 ± 1153.2 pg/mL
same,14HDHA concentration,[1]; [8],229.2 ± 41.2 pg/mL
same,15HEPE concentration,[1]; [8],31.3 ± 8.7 pg/mL
same,15HETE concentration,[1]; [8],336.4 ± 95.2 pg/mL
same,17HDHA concentration,[1]; [8],103.6 ± 25.9 pg/mL
same,18HEPE concentration,[1]; [8],36.2 ± 12.2 pg/mL
same,AA concentration,[1]; [8],24205.0 ± 4783.4 pg/mL
same,DHA concentration,[1]; [8],28104.0 ± 10103.4 pg/mL
same,EPA concentration,[1]; [8],5867.2 ± 713.2 pg/mL
"C[C@]12CCC(=O)C=C1CC[C@@H]1[C@@H]2[C@@H](O)C[C@@]2(C)[C@H]1CC[C@]2(O)C(=O)CO [Cortisol, cortisol]",production of n-3 DPA derived mediators in peripheral blood,[1],did not significantly augment
same,7-HDPA concentration,[1]; [9],268.9 ± 83.5 pg/mL
same,13-HDPA concentration,[1]; [9],3.2 ± 0.7 pg/mL
same,14-HDPA concentration,[1]; [9],286.2 ± 91.0 pg/mL
same,17-HDPA concentration,[1]; [9],74.9 ± 18.2 pg/mL
same,DPA concentration,[1]; [9],24568.2 ± 6300.4 pg/mL
same,MaR1n-3 DPA concentration,[1]; [9],0.3 ± 0.2 pg/mL
same,PD1n-3 DPA concentration,[1]; [9],1.5 ± 1.1 pg/mL
same,RvD1n-3 DPA concentration,[1]; [9],1.9 ± 1.2 pg/mL
same,RvD2n-3 DPA concentration,[1]; [9],1.0 ± 0.9 pg/mL
same,RvD5n-3 DPA concentration,[1]; [9],1.1 ± 0.6 pg/mL
same,RvT1 concentration,[1]; [9],0.5 ± 0.2 pg/mL
same,RvT2 concentration,[1]; [9],0.1 ± 0.1 pg/mL
same,RvT3 concentration,[1]; [9],1.6 ± 0.5 pg/mL
same,RvT4 concentration,[1]; [9],2.7 ± 1.5 pg/mL
same,7-HDPA concentration,[1]; [10],257.8 ± 109.6 pg/mL
same,13-HDPA concentration,[1]; [10],3.0 ± 0.6 pg/mL
same,14-HDPA concentration,[1]; [10],241.0 ± 40.9 pg/mL
same,17-HDPA concentration,[1]; [10],71.5 ± 17.5 pg/mL
same,DPA concentration,[1]; [10],28823.5 ± 8019.0 pg/mL
same,MaR1n-3 DPA concentration,[1]; [10],0.2 ± 0.2 pg/mL
same,PD1n-3 DPA concentration,[1]; [10],2.5 ± 1.5 pg/mL
same,RvD1n-3 DPA concentration,[1]; [10],1.7 ± 1.5 pg/mL
same,RvD2n-3 DPA concentration,[1]; [10],1.2 ± 0.8 pg/mL
same,RvD5n-3 DPA concentration,[1]; [10],1.7 ± 0.3 pg/mL
same,RvT1 concentration,[1]; [10],0.6 ± 0.2 pg/mL
same,RvT2 concentration,[1]; [10],0.1 ± 0.0 pg/mL
same,RvT3 concentration,[1]; [10],2.2 ± 1.5 pg/mL
same,RvT4 concentration,[1]; [10],3.0 ± 1.8 pg/mL
"CC/C=C\CC(O)C(O)/C=C/C=C/C=C\C=C\C(O)CCCCCC(=O)O (stereo not drawn) [RvD2n-3 DPA, 7,16,17-trihydroxy-8,10,12,14E,19Z-docosapentaenoic acid]",expression of CD11b on monocytes,[2],only in part shared
same,expression of CD11b on neutrophils,[2],only in part shared
same,platelet-monocyte aggregates measured as CD62P and CD41 expression,[2],decreases
same,platelet-neutrophil aggregates measured as CD62P and CD41 expression,[2],decreases
same,expression of CD62P on peripheral blood platelets,[3],dose-dependently regulated
same,expression of CD63 on peripheral blood platelets,[3],dose-dependently regulated
same,monocyte expression of CD11b,[4]; [11],dose dependent decreases
same,monocyte expression of platelet marker CD62P,[4]; [11],dose dependent decreases
same,neutrophil CD11b expression,[4]; [11],dose dependent decreases
same,neutrophil-platelet aggregates measured as neutrophil CD62P expression,[4]; [11],dose dependent decreases
same,decrease in monocyte CD41 expression,"[4]; at 10 nM, n=5 donors",~29%
same,decrease in neutrophil CD41 expression,"[4]; at 10 nM, n=5 donors",~20%
same,monocyte CD11b expression,[5]; [12],without significantly regulating
same,neutrophil CD11b expression,[5]; [12],without significantly regulating
same,platelet-monocyte aggregates,[5]; [12],dose-dependently decreased
same,platelet-neutrophil aggregates,[5]; [12],dose-dependently decreased
same,platelet CD62P expression,[5]; CVD patient whole blood,downregulated
same,platelet CD63 expression,[5]; CVD patient whole blood,downregulated
NC[C@H](O)c1ccc(O)c(O)c1 [norepinephrine],production of n-3 DPA derived mediators in peripheral blood,[1],did not significantly augment
adenosine deaminase [ADA],concentrations of RvDn-3 DPA in CVD patient blood,[6],increase
